Assay results reported in the SangsterLogP compilation.

Experiment: method code SF, from Hansch, C. & Leo, A. (1987). Log P database [Dataset]. Pomona College Medicinal Chemistry Project.

## Sc1ncnc2nc[nH]c12
pH 7.4
  logD: 0.01

## NS(=O)(=O)NS(=O)(=O)Nc1ccccc1
  logP: 0.02

## CCOc1ccccc1NC(C)=O
  logP: 1.49

## S=P(N1CC1)(N1CC1)N1CC1
  logP: 0.53

## C/N=C/c1ccccc1
  logP: 1.64

## N#C/N=N/c1ccccc1
  logP: 2.3

## CCCCC1CC(C(=O)NC(C(C)O)C2OC(SC)C(O)C(O)C2O)N(CC)C1 (stereo unspecified)
pH 12.0
  logD: 1.76

## CC(Cl)(Cl)Cl
  logP: 2.49

## N#CCC(=O)Nc1ccc(Cl)c(Cl)c1
  logP: 2.72

## O=C(Nc1ccc(Br)cc1)C(F)(F)F
  logP: 3.34

## CCCCC1C(=O)NC(=O)NC1=O
  logP: 0.77

## CSc1nccc(O)n1
  logP: 0.22

## CNc1cccc2ccccc12
  logP: 2.88

## CC1(C)OCCO1
  logP: 0.46

## CCC(C)NC(=O)C(=Cc1ccccc1)c1ccccc1 (stereo unspecified)
  logP: 4.05

## O=P(c1ccccc1)(c1ccccc1)c1ccccc1
  logP: 2.85

## NC(N)=Nc1ccccc1
  logP: 0.53

## CCC(=O)OCC(=O)[C@@]1(OC(=O)CC)[C@H](C)C[C@H]2[C@@H]3C[C@H](F)C4=CC(=O)C(Cl)=C[C@]4(C)[C@@]3(F)[C@@H](O)C[C@@]21C
  logP: 4.22

## CC1=Nc2ccc(C(F)(F)F)cc2S(=O)(=O)N1
  logP: 1.51

## O=C(/C=C/c1ccccc1)N1CCCCC1
  logP: 2.74

## Nc1nncs1
pH 7.4
  logD: -0.57

## CCCCc1ccc(C(=O)O)nc1
pH 2.0
  logD: 0.68

## COc1cc(C(=O)C=CN2CC=CC2)cc(OC)c1OC
  logP: 1.77

## O=[N+]([O-])CCc1ccccc1
  logP: 2.08

## CCOP(=S)(OCC)SCS(=O)(=O)C(C)(C)C
  logP: 2.48

## NC(=O)c1cccc(Br)c1
  logP: 1.65

## O=[N+]([O-])Cc1ccccc1
  logP: 1.75

## O=c1[nH]c(=O)n(C2CCCO2)cc1F (stereo unspecified)
pH 7.4
  logD: -0.27

## CC(=O)OCC1=C(C(=O)O)N2C(=O)C(NC(=O)COc3ccccc3)C2SC1 (stereo unspecified)
pH 3.0
  logD: 0.26

## C#CCO
  logP: -0.38

## CC(=O)OCOC(=O)C1=C(CSC2(C)N=NN=N2)CSC2C(NC(=O)C(O)c3ccccc3)C(=O)N12 (stereo unspecified)
pH 6.8
  logD: 0.75

## c1cncc(CN2CCOCC2)c1
pH 11.0
  logD: 0.04

## CCOC(=O)C(=Cc1ccc(Br)cc1)C(=O)OCC
  logP: 4.02

## c1ccc(Sc2ccccc2)cc1
  logP: 4.45

## C=CCNC(=O)NCC=C
  logP: 0.64

## COC(=O)c1ccccc1C(=O)O
pH 1.0
  logD: 1.13

## O=C(Oc1ccccc1)Oc1ccccc1
  logP: 3.28

## COc1cc(S(C)=O)ccc1-c1cn2ccnc(OC)c2n1 (stereo unspecified)
  logP: 1.49

## COc1ccc2[nH]c(CCCCc3nc4cc(OC)ccc4[nH]3)nc2c1
  logP: 1.42

## O=c1[nH]c(=O)c2[nH]cnc2[nH]1
  logP: -0.73

## CC(=O)NC(=O)NC(C)=O
  logP: -0.68

## CC(C)(C)CC1=Nc2ccc(Cl)cc2S(=O)(=O)N1
  logP: 2.71

## FC(F)(F)Oc1ccccc1
  logP: 3.17

## CN(C)C(=O)Nc1ccc(C(C)(C)C)cc1
  logP: 3.1

## Brc1ccccn1
  logP: 1.42

## CCC(=O)OCCOc1ccc(C=O)cc1OC
  logP: 1.33

## Cc1ccc(C(O)c2ccccc2)cc1 (stereo unspecified)
  logP: 3.13

## CCOC(=O)C(=Cc1ccccc1OC)C(=O)OCC
  logP: 3.29

## C(=C\c1ccccn1)/c1ccccn1
  logP: 2.11

## C1=Cc2ccccc2C1
  logP: 2.92

## CCNCc1cccnc1
pH 11.0
  logD: 0.76

## O=C(CCl)Nc1ccc(Cl)c(Cl)c1
  logP: 3.29

## CC(=O)N(c1ccccc1)S(C)(=O)=O
  logP: 0.29

## CNC(=O)C=C(C)OP(=O)(OC)OC
  logP: -0.2

## CC(=O)Nc1cccc(/N=N/N(C)C)c1
  logP: 1.61

## CCC(C)NC(=O)C=Cc1ccc(Cl)cc1 (stereo unspecified)
  logP: 3.37

## O=C(CNC(=O)c1ccccc1)Oc1ccc(F)cc1
  logP: 2.46

## CC(=O)Oc1ccccc1I
  logP: 2.55

## COC(=O)c1ccccc1Cl
  logP: 2.38

## O=C(c1ccncc1)c1ccc(O)cc1
  logP: 1.37

## O=c1[nH]c(=O)n([C@H]2C[C@H](O)[C@@H](CO)O2)cc1Br
  logP: -0.29

## CC(C)Oc1ccccc1OC(=O)N(C)C
  logP: 2.06

## Clc1ccc2[nH]c(CCc3nc4cc(Cl)ccc4[nH]3)nc2c1
  logP: 1.13

## CC1=Nc2c(C)cccc2S(=O)(=O)N1
  logP: 0.52

## Cc1cc(CSc2ccccc2C(C)C)c(O)c(C(=O)O)c1
  logP: 4.36

## CC(=O)Nc1ccc(S(=O)(=O)F)cc1
  logP: 2.17

## CCC(=O)CCCN(C)c1ccc(S(=O)(=O)N(C)C)cc1
  logP: 0.71

## COP(=S)(NC(C)C)Oc1ccc(Cl)cc1Cl (stereo unspecified)
  logP: 4.3

## C1=CCCCC1
  logP: 2.86

## CC1=NS(=O)(=O)c2ccc(C(F)(F)F)cc2N1
  logP: 1.59

## COc1cccc(C(=O)N(C)C)c1
  logP: 1

## CC(=O)OC[C@H]1O[C@@H](NC(=O)N(CCCl)N=O)[C@H](OC(C)=O)[C@@H](OC(C)=O)[C@H]1OC(C)=O
  logP: 1.04

## COC(=O)NS(=O)(=O)c1ccc(N)cc1
  logP: -0.27

## CCCOc1cccc(C=C(C(=O)OCC)C(=O)OCC)c1
  logP: 4

## CCC[C@H]1CN[C@H](C(=O)N[C@@H]([C@H]2O[C@H](SC)[C@H](O)[C@@H](O)[C@H]2O)[C@H](C)Cl)C1
pH 12.3
  logD: 1.69

## c1ccc(-n2cnnn2)cc1
  logP: 1.09

## CN(C)C(=O)c1ccsc1
  logP: 0.55

## COc1cccc(C=C(C(N)=O)C(N)=O)c1
  logP: 0.01

## CC(=O)c1csc2ccccc12
  logP: 2.78

## c1ccc2c(c1)CNc1ccccc1C2
  logP: 2.9

## COc1cccc2c1C(=O)c1c(O)c3c(c(O)c1C2=O)C[C@@](O)(C(=O)CO)C[C@@H]3O
  logP: 2.74

## O=C(O)c1nccc2ccccc12
pH 2.0
  logD: -0.53

## Cc1c(-c2ccccc2)oc2ccccc2c1=O
  logP: 3.92

## FC(F)(F)c1ccccc1
  logP: 2.9

## C(=N\N1CCCCC1)/c1ccccc1
  logP: 3.04

## COc1ccc(-c2ncc[nH]2)c(OC)c1
  logP: 1.72

## CC(=O)Oc1ccc(C(N)=O)cc1
pH 7.0
  logD: 0.27

## CC(=O)n1ccnc1
  logP: -0.34

## O=C(c1ccncc1)c1ccccc1O
  logP: 2.13

## Cc1nnc(SCc2ccccc2)o1
  logP: 1.74

## CC1(C)N=C(N)N=C(N)N1c1ccccc1
pH 13.0
  logD: 0.28

## O=c1cc2ccccc2n[nH]1
  logP: 0.68

## CNN=CCCc1ccccc1
pH 7.4
  logD: 1

## Nc1c(S(=O)(=O)O)ccc2ccccc12
  logP: -0.97

## CON(C)C(=O)Nc1cccc(OCc2ccccc2)c1
  logP: 3.11

## O=c1[nH]c2ccccc2o1
  logP: 1.16

## CN(C)c1ccc(N=C2C=CC(=O)C=C2)cc1
  logP: 2.02

## O=S1(=O)NC(C2CC3C=CC2C3)=Nc2ccccc21 (stereo unspecified)
  logP: 2.06

## CC(=O)Nc1ccccc1C(C)C
pH 7.4
  logD: 1.71

## CC(=O)c1cccc(C(C)=O)c1
pH 7.0
  logD: 1.43

## CCCCOC1NC(=O)NC(=O)C1=[N+]=[N-] (stereo unspecified)
  logP: -0.55

## O=C(Nc1ccc(Cl)c(Cl)c1)C(F)(F)F
  logP: 3.9

## CC(C)c1ccccc1OCC(=O)O
  logP: 2.84

## CCOC(=O)c1ccncc1
  logP: 1.43

## CC1(C)Oc2c(O)cccc2C1=O
  logP: 1.87

## CCCCNCc1cccnc1
pH 11.0
  logD: 1.34

## FC(F)Oc1ccccc1
  logP: 2.41

## ClC(Cl)=Nc1ccccc1
  logP: 2.54

## Cc1ccc(S(=O)(=O)F)cc1
  logP: 2.74

## CC(=O)Nc1cccc(C#N)c1
  logP: 1.2

## O=C(/C=C/C(=O)c1ccccc1)c1ccccc1
  logP: 3.16

## COc1cn[nH]c1
  logP: 0.37

## Cc1ccoc1CN(C)C
  logP: 1.63

## CCN(CC)C(C)CN1c2ccccc2Sc2ccccc21 (stereo unspecified)
  logP: 4.77

## CCCCCCOC(=O)c1ccc(O)cc1
  logP: 4.35

## Cc1csc(N=C(N)N)n1
  logP: 1.24

## Nc1ccccc1I
  logP: 2.32

## c1cnc2nccnc2c1
  logP: -0.04

## C=CCc1ccccc1
  logP: 3.23

## c1cncc(CCN2CCCCC2)c1
pH 11.0
  logD: 1.66

## Cc1cccc(NC(=O)c2ccccc2)c1
  logP: 2.75

## COC(=O)c1ccc(OC)cc1
pH 7.0
  logD: 2.27

## CCCCCC1CN[C@H](C(=O)NC(C(C)Cl)[C@H]2O[C@H](SC)[C@H](O)[C@@H](O)[C@H]2O)C1 (stereo in doubt)
pH 12.0
  logD: 2.74

## CN(C=O)c1ccccc1
  logP: 1.09

## N#CC(Cl)(Cl)Cl
  logP: 2.09

## COc1ccc([N+]([O-])=NC#N)cc1
  logP: 2.15

## CC1=Nc2c([N+](=O)[O-])cc(Cl)cc2S(=O)(=O)N1
  logP: 0.85

## CCC(CC)C1=Nc2ccccc2S(=O)(=O)N1
  logP: 1.88

## CC(=O)c1ccc2ncccc2c1
  logP: 1.58

## Cc1cccc(C(N)=O)c1
  logP: 1.18

## CCOC(=O)C(F)(F)C(F)(F)F
  logP: 2.12

## CCOC(=O)C(=Cc1ccc(OC)cc1)C(=O)OCC
  logP: 3.28

## CC(=O)OC1CCCC(NC(=O)N(CCF)N=O)C1 (stereo unspecified)
  logP: 1.33

## COC(=O)c1c(C)n(C)c2c1c1c(O)c3c(O)c(C)c4c(c32)C(=O)C(C)(OC=CC(OC)C(C)C(OC(C)=O)C(C)C(O)C(C)C(O)C(C)C=CC=C(C)C(=O)N1)O4 (stereo unspecified)
  logP: 1.46

## Nc1ccc2nc3ccccc3cc2c1
  logP: 2.62

## CNC(=O)Oc1cc(C)c(C)cc1C
  logP: 2.52

## O=S1(=O)NC(CCl)=Nc2cc(Cl)ccc21
  logP: 1.68

## O=C(O)C(Cl)(Cl)Cl
  logP: 1.33

## Nc1ncnc2nc(-c3ccccc3)[nH]c12
pH 7.3
  logD: 2.31

## COc1ccc(CN(CCN(C)C)c2ccccn2)cc1
  logP: 2.85

## CC(=O)Nc1ccc(F)cc1
  logP: 1.43

## O=[N+]([O-])c1ccc(C=Cc2nc[nH]n2)o1
  logP: 1.1

## CCCCN(C)N=Nc1cn([C@@H]2O[C@H](CO)[C@@H](O)[C@H]2O)c(=O)n(C)c1=O
  logP: -0.45

## CC(=O)c1ccc[nH]1
  logP: 0.93

## O=C(CNC(=O)c1ccccc1)Oc1cccc(F)c1
  logP: 2.58

## O=C1C=CC(=O)N1
  logP: -0.29

## COC(=O)C(=Cc1ccccc1)C(=O)OC
  logP: 2.24

## CN(C)C(=O)Cc1cccs1
  logP: 0.65

## O=C1CCCCC1
  logP: 0.81

## Cc1cccc(OC(=O)N(C)C)c1
  logP: 2.05

## O=NN(CCF)C(=O)NC1CCC(NC(=O)N(CCF)N=O)CC1 (stereo unspecified)
  logP: 1.34

## COP(N)(=O)Oc1cc(Cl)c(Cl)cc1Cl (stereo unspecified)
  logP: 2.53

## O=c1cc[nH]cn1
  logP: -1.38

## CCCCNC(=O)n1c(NC(=O)OC)nc2ccccc21
  logP: 2.42

## CCCOP(=O)(OCCC)OCCC
  logP: 1.87

## N#CSCc1ccccc1
  logP: 1.99
